Experimental findings from publication PMC6368365, “Didehydro-Cortistatin A Inhibits HIV-1 by Specifically Binding to the Unstructured Basic Region of Tat” (mBio, 2019) are described below.

This assay deals with recombinant Tat transactivation of HIV-1 5′ LTR-luciferase. Kind of assay: Transactivation assay with recombinant Tat in HeLa-CD4-LTR-Luc cells. It is filed as cell-based. The source says:
The production of functional recombinant HIV-1 Tat in Escherichia coli is not trivial as the proper folding of Tat is extremely important for activity, and when expressed by itself, Tat agglomerates mostly because of oxidation of the cysteine residues in the cysteine region. Tat can also adhere to different surfaces and anionic polymers via its charged and hydrophobic residues ([21], [22]). We produced and purified recombinant HIV Tat HXB3 (residues 1 to 89) with a 6×His tag in the C-terminus in E. coli. For this, we have partially optimized the arginine codon usage and changed the rare AGA into codon CGT at arginine positions 7, 53, 56, and 87 of Tat (Fig. 1A). […] After Tat purification using nickel affinity chromatography followed by size exclusion filtration, Tat protein size was analyzed by SDS-PAGE followed by Coomassie blue staining (Fig. 1B). The specificity of the bands was confirmed by Western blotting using anti-Tat serum and anti-His antibody (Fig. 1B). The purity of Tat was further verified by size exclusion chromatography and high-performance liquid chromatography (HPLC) (Fig. 1C and D). We confirmed the activity of Tat by performing transactivation assays in both HeLa-CD4 cells stably expressing the HIV-1 5′ long terminal repeat (LTR) promoter driving luciferase expression (HeLa-CD4-LTR-Luc cells) ([10]) and the OM10.1 cell line model of HIV-1 latency ([23]) (Fig. 1E and F; see Fig. S2A and S2B in the supplemental material). In HeLa-CD4-LTR-Luc cells, the activity of our purified Tat was similar to the published activity of Tat obtained from the AIDS Reagent Program ([10]). In addition, denatured Tat and Tat mutated in the basic domain (Tat Mut [arginine residues mutated to alanine residues]), used as negative controls, were unable to transactivate the reporter (Fig. S2A).
FIG 1 Purity and activity of the monomeric His-tagged Tat HXB3 and analysis of its direct binding to dCA. […] Statistical significance was determined using one-way ANOVA with post hoc Tukey’s test. ns, not significant; ***, P < 0.0001; *, P < 0.01. […]
On to `C[C@@](Cc1ccc(O)c(O)c1)(NN)C(=O)O.O` [SCM, S-(−)-carbidopamonohydrate, reference compound], for which the “inhibition of recombinant Tat transactivation (luciferase)” value is on record as “no inhibitory activity”.
Next, `CN(C)C1CC23CCC4(O2)C(=CCC2(C)C(c5ccc6ccncc6c5)=CCC24)C=C3C(O)C1O` (stereo not drawn) [dCA, didehydro-cortistatin A]: “blocked Tat transcriptional activity in a dose-dependent manner”.
`Cc1nnc(C(=O)NC(C)(C)c2nc(C(=O)NCc3ccc(F)cc3)c(O)c(=O)n2C)o1` [raltegravir, reference compound]: the “inhibition of recombinant Tat transactivation (luciferase)” value is on record as “no inhibitory activity”.
